Assay [1] deals with mice. The assay is described as follows: Central depressant properties (passage of mice through a light ray). The assay is classed as in vivo. To be noted: intragastric, 30 minutes after administration, recorded over 15 minutes, dose with depressant action in 50% of the animals; for ED50: Mus musculus, po, 0.5 h, read-out: AD50 (the source's name). How it is done: D. Central depressant properties
Thirty minutes after the intragastric administration of a dose of the compound to be studied, batches of mice were placed in a container through which a ray of light was projected. By means of a photoelectric cell, a record was made of the number of animals passing through the light ray over a period of 15 minutes. The same test was performed with control animals.
The AD50 was then calculated i.e. the dose of the compound under study which provoked a depressant action in 50% of the animals.

Assay [2] concerns α-receptors. The assay is described as follows: Antiadrenergic properties: anti-α effect (reduction of epinephrine-increased blood-pressure). The assay is classed as in vivo, dog. To be noted: intravenous; for Anti-α effect: anaesthetized atropinized dog, epinephrine. As for the experimental part:
(§1) The purpose of this test was to determine the capacity of the compounds under study to reduce epinephrine-increased blood-pressure (anti-α effect) and epinephrine-accelerated heart-rate (anti-β effect) in the dog previously anaesthetized with pentobarbital (30 mg/kg) and atropinized (1 mg/kg).
After that, the dose of epinephrine so determined was administered followed by a dose, by intravenous route, of the compound to be studied. The percentage of reduction of hypertension produced by the compound under study in comparison with the hypertension previously obtained (about 100 mm.Hg) was then registered.
(§2) In both cases, the results were expressed as follows: […]
(§3) + for a <50%-reduction of the increase in pressure or cardiac frequency
(§4) ++ for a ≥50-reduction of the increase in pressure or cardiac frequency
(§5) +++ for the almost complete supression of the increase in pressure or cardiac frequency.

The test system of assay [3] is β-receptors. The assay is described as follows: Antiadrenergic properties: anti-β effect (reduction of epinephrine-accelerated heart-rate). The assay is classed as in vivo. To be noted: intravenous, anaesthetized atropinized dog. As for the experimental part:
as §1
The percentage of reduction of the epinephrine-induced acceleration of heart-rate obtained by means of the compounds under study in comparison with the tachycardia previously measured (about 70 beats) was then registered.
as §2, §3, §4, §5

Assay [4] concerns anaesthetized dog. The assay is described as follows: Reserpine-like properties (cardiac frequency and contractility of the myocardium). The class given is in vivo. To be noted: Canis lupus familiaris, 1 mg/kg, intravenous, anaesthetized dog. An excerpt:
C. Reserpine-like properties
the increase in cardiac frequency
the increase of (dP/dt) at its maximum, i.e. the increase of the maximum of the derivative of the left ventricular pressure in relation to time.
This derivative thus represented an index of contractility.

Assay [5] has as its system anaesthetized dog. The assay is described as follows: Hypotension in the anaesthetized dog. The assay is classed as in vivo. The note with it: intravenous. How it is done:
(a) Hypotension in the anaesthetized dog
The hypotensive effect was determined for at least one hour after the intravenous injection of a dose of the compound under study in the dog previously anaesthetized with pentobarbital (30 mg/kg) and atropinized (1 mg/kg).
Arterial pression was registered on a femoral artery.
The results were expressed as follows: […]
++ for a lasting reduction of about 30% in arterial pressure
+ for a short-lived reduction of about 20% in arterial pressure.

Setting [6] is: (dP/dt) maximum, read-out: increase in the contractility of the myocardium.
[7] abbreviates: read-out: increase in cardiac frequency.

Structures can show the parent of a compound that is named as a salt. Where two headings read alike, the source gives them in different places.

`Cc1ncc(CO)c(CO)c1OCC(O)CNCCOc1ccccc1C(C)C` (stereo not drawn) [P, 4,5-Dihydroxymethyl-3-[2-hydroxy-3-(2-isopropyl-phenoxyethylamino)-propoxy]-2-methyl-pyridine]: the ED50 in assay [1] amounted to 42 mg/kg. Besides, the Anti-α effect result in assay [2] (2 mg/kg) is “+++”. In addition, the Anti-β effect result in assay [3] (2 mg/kg) is on record as “++ (for a ≥50-reduction of the increase in pressure or cardiac frequency)”. Besides, the change in vivo at 1 mg/kg in assay [4] (setting [6]) and in assay [4] (setting [7]) was 10 to 30% throughout.

Consider “4,5-Dihydroxymethyl-3-[3-(2,6-dimethyl-phenoxyethylamino)-2-hydroxy-propoxy]-2-methyl-pyridine [G]”, for which the “Decrease in arterial pressure” value in assay [5] (2 mg/kg) was “++ (for a lasting reduction of about 30% in arterial pressure)”. The Anti-α effect entry in assay [2] (2 mg/kg) is listed as “+++”. Besides, the Anti-β effect result in assay [3] (2 mg/kg) is recorded as “+ (for a <50%-reduction of the increase in pressure or cardiac frequency)”.

Regarding `Cc1ccc(OCCCNCC(O)COc2c(C)ncc(CO)c2CO)cc1C` (stereo not drawn) [T, 4,5-Dihydroxymethyl-3-[2-hydroxy-3-(3,4-dimethyl-phenoxypropylamino)-propoxy]-2-methyl-pyridine], in assay [2] (10 mg/kg), the Anti-α effect entry is listed as “++ (for a ≥50-reduction of the increase in pressure or cardiac frequency)”. In assay [3] (10 mg/kg), the Anti-β effect entry is reported as “++ (for a ≥50-reduction of the increase in pressure or cardiac frequency)”.

On to “4,5-Dihydroxymethyl-3-{2-hydroxy-3-[(3-phenyl-1-methyl-1-propyl)-amino]-propoxy}-2-methyl-pyridine”, for which, in assay [2] (10 mg/kg), the Anti-α effect entry is on record as “+++”. In addition, the Anti-β effect entry in assay [3] (10 mg/kg) is recorded as “++ (for a ≥50-reduction of the increase in pressure or cardiac frequency)”.

For `Cc1ncc(CO)c(CO)c1OCC(O)CNCCOc1ccccc1C(C)C` (stereo not drawn) [S, 4,5-Dihydroxymethyl-3-[2-hydroxy-3-(2-isopropyl-phenoxyethylamino)-propoxy]-2-methyl-pyridine], in assay [2] (10 mg/kg), the Anti-α effect entry is listed as “+++”. For the same molecule, the Anti-β effect result in assay [3] (10 mg/kg) was “++ (for a ≥50-reduction of the increase in pressure or cardiac frequency)”.

As for `Cc1ccc(OCCNCC(O)COc2c(C)ncc(CO)c2CO)cc1` (stereo not drawn) [Compound M, 4,5-Dihydroxymethyl-3-[2-hydroxy-3-(4-methyl-phenoxyethylamino)-propoxy]-2-methyl-pyridine], the Anti-α effect entry in assay [2] (10 mg/kg) is given as “++ (for a ≥50-reduction of the increase in pressure or cardiac frequency)”. In addition, the Anti-β effect in assay [3] (10 mg/kg) worked out at 0. In addition, the change in vivo at 1 mg/kg in assay [4] (setting [6]) and in assay [4] (setting [7]) was 10 to 30% throughout.

“4,5-Dihydroxymethyl-3-[2-hydroxy-3-(2-phenoxy-2-methyl-ethylamino)-propoxy]-2-methyl-pyridine [J]”: the AD50 in assay [1] was found to be 47 mg/kg. The Anti-α effect entry in assay [2] (10 mg/kg) was “+++”.

`CCCc1ccccc1OCCNCC(O)COc1c(C)ncc(CO)c1CO` (stereo not drawn) [N, 4,5-Dihydroxymethyl-3-[2-hydroxy-3-(2-n-propyl-phenoxyethylamino)-propoxy]-2-methyl-pyridine]: the ED50 in assay [1] worked out at 42 mg/kg. Further, the Anti-α effect entry in assay [2] (7 mg/kg) is recorded as “+++”. Besides, the Anti-β effect entry in assay [3] (7 mg/kg) is “++ (for a ≥50-reduction of the increase in pressure or cardiac frequency)”.

Turning to `Cc1ncc(CO)c(CO)c1OCC(O)CNCCc1ccccc1` (stereo not drawn) [Z, 4,5-Dihydroxymethyl-3-(2-hydroxy-3-phenylethyl-amino-propoxy)-2-methyl-pyridine oxalate], the ED50 in assay [1] was found to be 33 mg/kg. For the same molecule, the change in vivo at 1 mg/kg in assay [4] (setting [6]) and in assay [4] (setting [7]) was 10 to 30% each time.

In the case of `Cc1ccc(C(C)C)c(OCCNCC(O)COc2c(C)ncc(CO)c2CO)c1` (stereo not drawn) [L, 4,5-Dihydroxymethyl-3-[2-hydroxy-3-(2-isopropyl-5-methyl-phenoxyethylamino)-propoxy]-2-methyl-pyridine], the ED50 in assay [1] stood at 40 mg/kg. Moreover, the Anti-α effect result in assay [2] (10 mg/kg) is recorded as “+++”. Also, in assay [3] (10 mg/kg), the Anti-β effect entry is listed as “++ (for a ≥50-reduction of the increase in pressure or cardiac frequency)”. Moreover, the change in vivo at 1 mg/kg in assay [4] (setting [6]) and in assay [4] (setting [7]) was 10 to 30% each time.

For the molecule “4,5-Dihydroxymethyl-3-[2-hydroxy-3-(2-phenyl-1-methyl-ethylamino)-propoxy]- 2-methyl-pyridine [B]”, the “Decrease in arterial pressure” value in assay [5] (3.5 mg/kg) is on record as “+ (for a short-lived reduction of about 20% in arterial pressure)”. The Anti-α effect entry in assay [2] (3.5 mg/kg) is “+++”. For the same molecule, the Anti-β effect result in assay [3] (3.5 mg/kg) is on record as “+++”.

Turning to `COc1ccc(CCNCC(O)COc2c(C)ncc(CO)c2CO)cc1OC.O=C(O)C(=O)O.O=C(O)C(=O)O` (stereo not drawn) [X, 4,5-Dihydroxymethyl-3-[3-(3,4-dimethoxy-phenethylamino)-2-hydroxy-propoxy]-2-methyl-pyridine dioxalate], the “Decrease in arterial pressure” value in assay [5] (10 mg/kg) is “+ (for a short-lived reduction of about 20% in arterial pressure)”.

As for “4,5-Dihydroxymethyl-3-[2-hydroxy-3-(3,5-dimethyl-phenoxyethylamino)-propoxy]-2-methyl-pyridine”, in assay [2] (10 mg/kg), the Anti-α effect entry was “++ (for a ≥50-reduction of the increase in pressure or cardiac frequency)”. The Anti-β effect entry in assay [3] (10 mg/kg) is listed as “++ (for a ≥50-reduction of the increase in pressure or cardiac frequency)”.

As to `Cc1ncc(CO)c(CO)c1OCC(O)CNCCOc1ccc(Cl)cc1` (stereo not drawn) [W, 4,5-Dihydroxymethyl-3-[2-hydroxy-3-(4-chloro-phenoxyethylamino)-propoxy]-2-methyl-pyridine], the Anti-α effect result in assay [2] (10 mg/kg) is on record as “++ (for a ≥50-reduction of the increase in pressure or cardiac frequency)”. Also, the Anti-β effect entry in assay [3] (10 mg/kg) is listed as “+ (for a <50%-reduction of the increase in pressure or cardiac frequency)”.

Regarding “4,5-Dihydroxymethyl-3-[2-hydroxy-3-(2-methoxy-phenoxyethylamino)-propoxy]-2-methyl-pyridine”, in assay [1], the AD50 amounted to 33 mg/kg. In assay [2] (10 mg/kg), the Anti-α effect result is “++ (for a ≥50-reduction of the increase in pressure or cardiac frequency)”. Further, the Anti-β effect result in assay [3] (10 mg/kg) is recorded as “+ (for a <50%-reduction of the increase in pressure or cardiac frequency)”.

As to “4,5-Dihydroxymethyl-3-(2-hydroxy-3-phenoxyethylamino-propoxy)-2-methyl-pyridine [C]”, the Anti-α effect entry in assay [2] (10 mg/kg) was “+++”. For the same molecule, the Anti-β effect entry in assay [3] (10 mg/kg) is “+ (for a <50%-reduction of the increase in pressure or cardiac frequency)”.

In the case of `CNC(=O)OCc1cnc(C)c(OCC(O)CNCCOc2ccccc2C)c1COC(=O)NC` (stereo not drawn) [Q, 4,5-Di-(N-methylcarbamoyloxymethyl)-3-[2-hydroxy-3-(2-methyl-phenoxyethylamino)-propoxy]-2-methyl-pyridine], in assay [2] (10 mg/kg), the Anti-α effect result is reported as “+++”. Moreover, the Anti-β effect in assay [3] (10 mg/kg) was 0.

In the case of `CNC(=O)OCc1cnc(C)c(OCC(O)CNCCOc2ccccc2)c1COC(=O)NC` (stereo not drawn) [R, 4,5-Di-(N-methylcarbamoyloxymethyl)-3-(2-hydroxy-3-phenoxyethylamino-propoxy)-2-methyl-pyridine], the Anti-α effect entry in assay [2] (10 mg/kg) is listed as “++ (for a ≥50-reduction of the increase in pressure or cardiac frequency)”. In assay [3] (10 mg/kg), this molecule had an Anti-β effect of 0.

In the case of `COc1ccccc1OCCNCC(O)COc1c(C)ncc(CO)c1CO` (stereo not drawn) [Compound U, 4,5-dihydroxymethyl-3-[2-hydroxy-3-(2-methoxy-phenoxyethylamino)-propoxy]-2-methyl-pyridine], the Anti-α effect entry in assay [2] (10 mg/kg) is “+++”. Also, in assay [2] (lowest active dose, dog, dihydrochloride), the “prolonged α-antiadrenergic activity at a dose as low as” value came to 0.5 mg/kg. Moreover, in assay [3] (10 mg/kg), the Anti-β effect entry is given as “++ (for a ≥50-reduction of the increase in pressure or cardiac frequency)”.

The values above are taken from patent US4374841A, “Pyridoxine derivatives, and use in therapeutics” (S. A. Labaz N.V., priority 1980, dated 1983).
